Test results taken from US20240368169A1 (priority 2021, published 2024).

How the values were obtained:
[1] = results of clinical trials; cited from earlier work
[2] = system: TNKS1/2 (Tankyrase 1 or Tankyrase 2); details: compared with other PARP inhibitors, biochemical assay; cited from earlier work
[3] = biological target: recombinant poly(ADP-ribose) polymerase 1 (PARP1) (Homo sapiens, UniProt P09874); experiment: biochemical; details: inhibition of PARP1 enzyme activity, chemiluminescence
[4] = biological target: recombinant poly(ADP-ribose) polymerase 2 (PARP2) (Homo sapiens, UniProt Q9UGN5); experiment: biochemical; details: inhibition of PARP2 enzyme activity, chemiluminescence
MDA-MB-436 cells = experiment: Growth inhibition assay against BRCA mutant human breast cancer MDA-MB-436 cell line (CCK-8, 7 days); type: cell-based

Sequence of recombinant poly(ADP-ribose) polymerase 1 (PARP1) (P09874 whole entry): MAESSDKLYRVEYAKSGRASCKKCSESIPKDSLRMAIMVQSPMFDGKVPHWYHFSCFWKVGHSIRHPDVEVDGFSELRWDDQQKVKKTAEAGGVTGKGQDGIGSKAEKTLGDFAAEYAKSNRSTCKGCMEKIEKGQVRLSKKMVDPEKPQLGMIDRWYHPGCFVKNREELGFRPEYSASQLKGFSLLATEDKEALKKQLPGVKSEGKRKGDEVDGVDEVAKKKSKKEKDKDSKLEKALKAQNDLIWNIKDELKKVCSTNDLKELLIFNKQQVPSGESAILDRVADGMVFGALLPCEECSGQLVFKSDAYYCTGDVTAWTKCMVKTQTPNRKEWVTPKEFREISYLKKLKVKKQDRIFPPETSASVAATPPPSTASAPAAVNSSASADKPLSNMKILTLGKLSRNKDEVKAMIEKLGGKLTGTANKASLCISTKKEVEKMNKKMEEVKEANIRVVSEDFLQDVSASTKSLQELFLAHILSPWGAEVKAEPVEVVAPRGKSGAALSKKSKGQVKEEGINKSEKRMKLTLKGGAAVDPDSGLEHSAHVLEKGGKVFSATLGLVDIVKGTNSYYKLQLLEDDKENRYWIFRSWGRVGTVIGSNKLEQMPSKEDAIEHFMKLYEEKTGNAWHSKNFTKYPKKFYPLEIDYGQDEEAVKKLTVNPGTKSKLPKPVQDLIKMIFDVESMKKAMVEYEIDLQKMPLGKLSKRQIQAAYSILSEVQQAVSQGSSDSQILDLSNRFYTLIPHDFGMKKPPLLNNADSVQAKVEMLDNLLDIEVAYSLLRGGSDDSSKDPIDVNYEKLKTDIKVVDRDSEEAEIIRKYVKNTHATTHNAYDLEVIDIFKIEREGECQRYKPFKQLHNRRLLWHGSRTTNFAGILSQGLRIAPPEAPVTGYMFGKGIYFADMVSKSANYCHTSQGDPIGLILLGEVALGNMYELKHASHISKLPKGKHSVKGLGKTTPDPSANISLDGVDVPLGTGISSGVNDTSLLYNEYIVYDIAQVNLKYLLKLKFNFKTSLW
Sequence of recombinant poly(ADP-ribose) polymerase 2 (PARP2) (Q9UGN5 whole entry): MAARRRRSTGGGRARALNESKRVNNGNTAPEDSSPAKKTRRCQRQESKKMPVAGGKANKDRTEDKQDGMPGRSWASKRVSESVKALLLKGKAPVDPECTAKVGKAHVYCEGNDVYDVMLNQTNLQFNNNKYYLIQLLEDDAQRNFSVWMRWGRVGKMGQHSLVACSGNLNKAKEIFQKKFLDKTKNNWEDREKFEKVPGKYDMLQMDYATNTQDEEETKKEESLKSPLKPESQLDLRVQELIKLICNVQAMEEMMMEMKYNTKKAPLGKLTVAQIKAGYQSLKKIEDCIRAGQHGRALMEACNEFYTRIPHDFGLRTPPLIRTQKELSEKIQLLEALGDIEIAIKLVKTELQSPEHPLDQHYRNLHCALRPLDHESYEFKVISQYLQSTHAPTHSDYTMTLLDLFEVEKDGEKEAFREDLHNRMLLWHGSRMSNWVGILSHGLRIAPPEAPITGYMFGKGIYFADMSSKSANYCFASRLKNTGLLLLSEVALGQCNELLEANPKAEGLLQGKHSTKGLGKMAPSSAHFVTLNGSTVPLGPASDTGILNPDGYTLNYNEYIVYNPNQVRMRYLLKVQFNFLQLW

Row | SMILES | toxicity [1] | inhibitory activity against TNKS1/2 [2] | IC50 [3] | IC50 [4] | IC50 (MDA-MB-436 cells)
1 | Cn1ncnc1[C@H]1c2n[nH]c(=O)c3cc(F)cc(c23)N[C@@H]1c1ccc(F)cc1 [Talazoparib] | toxicity similar to chemotherapy drugs such as hair loss | more potent inhibitory activity | – | – | –
2 | O=C(NC1CC1)c1ccc(N2CCN(Cc3cc(F)c4c(c3)[nH]c(=O)c3cccn34)CC2)c(Cl)n1 [Example 68, 7-((4-(2-chloro-6-(cyclopropylcarbamoyl)pyridin-3-yl)piperazin-1-yl)methyl)-9-fluoropyrrolo[1,2-a]quinoxalin-4(5H)-one] | – | – | 1.61 nM | 90.1 nM | 2.92 nM
3 | CNC(=O)c1ccc(N2CCN(Cc3ccc4c(c3)[nH]c(=O)c3c(C)ccn34)CC2)c(C)n1 [Example 56, 7-((4-(2-methyl-6-(methylcarbamoyl)pyridin-3-yl)piperazin-1-yl)methyl)-3-methylpyrrolo[1,2-a]quinoxalin-4(5H)-one] | – | – | 2.32 nM | 37.9 nM | 0.65 nM
4 | CNC(=O)c1ccc(N2CCN(Cc3cc(C)c4c(c3)[nH]c(=O)c3ccnn34)CC2)c(C)n1 [Example 102, 7-((4-(2-methyl-6-(methylcarbamoyl)pyridin-3-yl)piperazin-1-yl)methyl)-9-methylpyrazolo[1,5-a]quinoxalin-4(5H)-one] | – | – | 6.91 nM | 101 nM | 2.24 nM
5 | Cc1nc(C(=O)NCO)ccc1N1CCN(Cc2cc(F)c3c(c2)[nH]c(=O)c2ccnn23)CC1 [Example 117, 7-((4-(2-methyl-6-(N-(hydroxymethyl)carbamoyl)pyridin-3-yl)piperazin-1-yl)methyl)-9-fluoropyrazolo[1,5-a]quinoxalin-4(5H)-one] | – | – | 0.91 nM | 645 nM | 4.74 nM
6 | Cc1nc(C(N)=O)ccc1N1CCN(Cc2cc(F)c3c(c2)[nH]c(=O)c2ccnn23)CC1 [Example 89, 7-((4-(2-methyl-6-(carbamoyl)pyridin-3-yl)piperazin-1-yl)methyl)-9-fluoropyrazolo[1,5-a]quinoxalin-4(5H)-one] | – | – | 1.72 nM | 861 nM | 2.22 nM
7 | CNC(=O)c1ccc(N2CCN(Cc3ccc4c(c3)[nH]c(=O)c3ccnn34)CC2)c(Cl)n1 [Example 37, 7-((4-(2-chloro-6-(methylcarbamoyl)pyridin-3-yl)piperazin-1-yl)methyl)pyrazolo[1,5-a]quinoxalin-4(5H)-one] | – | – | 0.47 nM | 46.5 nM | 1.07 nM
8 | CCNC(=O)c1ccc(N2CCN(Cc3cc(F)c4c(c3)[nH]c(=O)c3ccnn34)CC2)c(C)n1 [Example 91, 7-((4-(2-methyl-6-(ethylcarbamoyl)pyridin-3-yl)piperazin-1-yl)methyl)-9-fluoropyrazolo[1,5-a]quinoxalin-4(5H)-one] | – | – | 1.39 nM | 627 nM | 2.81 nM
9 | CNC(=O)c1ccc(N2CCN(Cc3ccc4c([nH]c(=O)c5cc(Cl)nn54)c3F)CC2)c(C)n1 [Example 103, 7-((4-(2-methyl-6-(methylcarbamoyl)pyridin-3-yl)piperazin-1-yl)methyl)-6-fluoro-2-chloropyrazolo[1,5-a]quinoxalin-4(5H)-one] | – | – | 0.76 nM | 1250 nM | 1.17 nM
10 | CNC(=O)c1ccc(N2CCN(Cc3cc(F)c4c5c(c(=O)[nH]c4c3)CCC5)CC2)c(F)n1 [Example 80, 7-((4-(2-fluoro-6-(methylcarbamoyl)pyridin-3-yl)piperazin-1-yl)methyl)-9-fluoro-1,2,3,5-tetrahydro-4H-cyclopenta[c]quinolin-4-one] | – | – | 2.26 nM | 32 nM | 2.37 nM
11 | CNC(=O)c1ccc(N2CCN(Cc3ccc4c(c3)[nH]c(=O)c3c(Cl)cnn34)CC2)c(C)n1 [Example 98, 7-((4-(2-methyl-6-(methylcarbamoyl)pyridin-3-yl)piperazin-1-yl)methyl)-3-chloropyrazolo[1,5-a]quinoxalin-4(5H)-one] | – | – | 1.91 nM | 41 nM | 0.62 nM
12 | CNC(=O)c1ccc(N2CCN(Cc3ccc4c(c3)[nH]c(=O)c3ccc(C)n34)CC2)c(C)n1 [Example 54, 7-((4-(2-methyl-6-(methylcarbamoyl)pyridin-3-yl)piperazin-1-yl)methyl)-1-methylpyrrolo[1,2-a]quinoxalin-4(5H)-one] | – | – | 1.32 nM | 12.7 nM | 1.85 nM
13 | Cc1nc(C(=O)NC2CC2)ccc1N1CCN(Cc2cc(F)c3c(c2)[nH]c(=O)c2cccn23)CC1 [Example 66, 7-((4-(2-methyl-6-(cyclopropylcarbamoyl)pyridin-3-yl)piperazin-1-yl)methyl)-9-fluoropyrrolo[1,2-a]quinoxalin-4(5H)-one] | – | – | 1.63 nM | 66.1 nM | 1.66 nM
14 | CNC(=O)c1ccc(N2CCN(Cc3cc(F)c4c(c3)[nH]c(=O)c3cc(Cl)nn34)CC2)c(F)n1 [Example 88, 7-((4-(2-fluoro-6-(methylcarbamoyl)pyridin-3-yl)piperazin-1-yl)methyl)-2-chloro-9-fluoropyrazolo[1,5-a]quinoxalin-4(5H)-one] | – | – | 1.72 nM | 80.3 nM | 0.38 nM
15 | CNC(=O)c1ccc(N2CCN(Cc3ccc4c([nH]c(=O)c5cc(C)nn54)c3F)CC2)c(F)n1 [Example 115, 7-((4-(2-fluoro-6-(methylcarbamoyl)pyridin-3-yl)piperazin-1-yl)methyl)-6-fluoro-2-methylpyrazolo[1,5-a]quinoxalin-4(5H)-one] | – | – | 1.45 nM | 288 nM | 1.98 nM
16 | O=C(NC1CC1)c1ccc(N2CCN(Cc3cc(F)c4c(c3)[nH]c(=O)c3cccn34)CC2)c(F)n1 [Example 67, 7-((4-(2-fluoro-6-(cyclopropylcarbamoyl)pyridin-3-yl)piperazin-1-yl)methyl)-9-fluoropyrrolo[1,2-a]quinoxalin-4(5H)-one] | – | – | 2.02 nM | 48.2 nM | 2.11 nM
17 | CNC(=O)c1ccc(N2CCN(Cc3ccc4c(c3)[nH]c(=O)c3cc(C)nn34)CC2)c(Cl)n1 [Example 70, 7-((4-(2-chloro-6-(methylcarbamoyl)pyridin-3-yl)piperazin-1-yl)methyl)-2-methylpyrazolo[1,5-a]quinoxalin-4(5H)-one] | – | – | 1.37 nM | 103 nM | 1.41 nM
18 | CNC(=O)c1ccc(N2CCN(Cc3ccc4c(c3)[nH]c(=O)c3c(C)cnn34)CC2)c(F)n1 [Example 71, 7-((4-(2-fluoro-6-(methylcarbamoyl)pyridin-3-yl)piperazin-1-yl)methyl)-3-methylpyrazolo[1,5-a]quinoxalin-4(5H)-one] | – | – | 1.35 nM | 66.4 nM | 0.77 nM
